Inhibition and IC50 data for 52 compounds are collected here from PubChem BioAssay AID588372 (Southern Research Specialized Biocontainment Screening …, 2011).

Several values for one entry are separate records, joined by “and”; a condition that tells them apart may be missing. Equal values may be shown once. Results filed as inconclusive are left out. Activity calls are given as the source filed them. The rule behind the calls is not given here.

Assay [1] in a line: antiviral activity against West Nile virus in cells, dose response, cell-based, EC_2 (AID 588372). To be noted: West Nile virus infected cells, antiviral inhibition.
Assay [2] relates to West Nile virus infected cells, antiviral inhibition. Described as above.

For the compound `O=C(CSc1nc2ccccc2c(=O)n1-c1cc(F)c(F)c(F)c1)Nc1nccs1`, the inhibition in assay [1] (at 100 µM (top of the series)) was 6.14% (inactive).
Still for that read-out and setting: the same measure for `O=C(CCSc1nc2ccccc2c(=O)n1-c1cc(Cl)cc(Cl)c1)Nc1ccc2c(c1)CCC2`: 1.02% (inactive); for `O=C(CSc1nc2ccccc2c(=O)n1-c1ccc(F)c(F)c1)Nc1cccc2ccccc12`: -1.02% (inactive); for `O=C(CSc1nc2ccccc2c(=O)n1-c1ccc(F)c(Cl)c1)Nc1cccc2ccccc12`: -0.86% (inactive).
Same read-out and setting: the same measure for `O=C(CSc1nc2ccccc2c(=O)n1-c1ccc(Cl)c(Cl)c1)Nc1ncc([N+](=O)[O-])s1`: 0.32% (inactive).
`O=C(CSc1nc2ccccc2c(=O)n1-c1ccc(Cl)c(Cl)c1)Nc1nc(-c2ccccc2)cs1`: in assay [1] (at 100 µM (top of the series)), the inhibition was 0.46% (inactive).
Turning to `O=C(CSc1nc2ccccc2c(=O)n1-c1ccc(Cl)c(Cl)c1)Nc1nc2ccc([N+](=O)[O-])cc2s1`, in assay [1] (at 50 µM (top of the series)), the inhibition is -1.43% (inactive).
Same read-out and setting: in the case of `O=C(CSc1nc2ccccc2c(=O)n1-c1ccc(Cl)c(Cl)c1)NC1CCCc2ccccc21` (configuration not stated) it was 1.77% (inactive).
For `O=C(CSc1nc2ccccc2c(=O)n1-c1ccc(F)c(Cl)c1)Nc1ccc2c(c1)CCC2`, the IC50 in assay [2] was 9.05 µM.
As for `O=C(CCSc1nc2ccccc2c(=O)n1-c1ccc(F)c(F)c1)Nc1ccc2c(c1)CCC2`, the inhibition in assay [1] (at 100 µM (top of the series)) is -1.31% (inactive).
Same read-out and setting: in the case of `O=C(CSc1nc2ccccc2c(=O)n1-c1ccc(Cl)c(Cl)c1)Nc1ccc2scnc2c1` it was 0.04% (inactive).
Turning to `O=C(CSc1nc2ccccc2c(=O)n1-c1cc(Cl)cc(Cl)c1)Nc1ccc2c(c1)CCC2`, the IC50 in assay [2] was 2.1 µM.
On to `O=C(CSc1nc2ccccc2c(=O)n1-c1ccc(F)c(Cl)c1)Nc1ccc2c(c1)OCO2`, for which the inhibition in assay [1] (at 100 µM (top of the series)) is -0.94% (inactive).
`O=C(CSc1nc2ccccc2c(=O)n1-c1ccc(Cl)c(Cl)c1)NC1Cc2ccccc2C1`: the inhibition in assay [1] (at 50 µM (top of the series)) was -0.66% (inactive).
As for `O=C(COc1nc2ccccc2c(=O)n1-c1ccccc1)Nc1ccc2c(c1)CCC2`, the inhibition in assay [1] (at 100 µM (top of the series)) was 5.92% (inactive).
Same read-out and setting: the same measure for `O=C(CSc1nc2ccccc2c(=O)n1-c1ccc(F)c(Cl)c1)NC1CCc2ccccc21` (configuration not stated): 1.01% (inactive).
As to `Cc1cnc(NC(=O)CSc2nc3ccccc3c(=O)n2-c2ccc(Cl)c(Cl)c2)s1`, the inhibition in assay [1] (at 100 µM (top of the series)) is -0.85% (inactive).
Turning to `O=C(CSc1nc2ccccc2c(=O)n1-c1ccc(F)c(Cl)c1)NC1CCCc2ccccc21` (configuration not stated), in assay [1] (at 100 µM (top of the series)), the inhibition was -0.04% (inactive).
As to `O=C(CSc1nc2ccccc2c(=O)n1-c1ccccc1)Nc1ccc2c(c1)CCC2`, the IC50 in assay [2] was 6.51 µM and 33.3 µM.
With `O=C(CSc1nc2ccccc2c(=O)n1-c1cc(F)c(F)c(F)c1)NC1CCCc2ccccc21` (configuration not stated), the inhibition in assay [1] (at 50 µM (top of the series)) was -0.6% (inactive).
On the same count and under the same terms, in the case of `O=C(CSc1nc2ccccc2c(=O)n1-c1cc(F)c(F)c(F)c1)Nc1cccc2c1CCC2` it was 5.49% (inactive); in that of `Cn1c(NC(=O)CSc2nc3ccccc3c(=O)n2-c2ccc(Cl)c(Cl)c2)nc2ccccc21`, -1.28% (inactive).
On to `O=C(CCCSc1nc2ccccc2c(=O)n1-c1ccc(Cl)c(Cl)c1)Nc1ccc2c(c1)CCC2`, for which the inhibition in assay [1] (at 100 µM (top of the series)) was -0.7% (inactive).
For `O=C(CSc1nc2ccccc2c(=O)n1-c1cc(Cl)cc(Cl)c1)Nc1ccc2c(c1)OCO2`, in assay [1] (at 50 µM (top of the series)), the inhibition was -2.43% (inactive).
Turning to `O=C(CSc1nc2ccccc2c(=O)n1-c1ccc(F)c(F)c1)NC1CCCc2ccccc21` (configuration not stated), the inhibition in assay [1] (at 100 µM (top of the series)) is -0.29% (inactive).
Same read-out and setting: in the case of `O=C(CSc1nc2ccccc2c(=O)n1-c1cc(F)c(F)c(F)c1)Nc1ccc2c(c1)OCO2` it was 3.29% (inactive).
In the case of `O=C(CSc1nc2ccccc2c(=O)n1-c1ccc(F)c(F)c1)Nc1nccs1`, in assay [1] (at 50 µM (top of the series)), the inhibition is 0% (inactive).
For `O=C(CCCCSc1nc2ccccc2c(=O)n1-c1ccc(F)c(F)c1)Nc1ccc2c(c1)CCC2`, in assay [1] (at 100 µM (top of the series)), the inhibition is 0.53% (inactive).
Consider `O=C(CSc1nc2ccccc2c(=O)n1-c1cc(Cl)cc(Cl)c1)Nc1cccc2c1CCC2`, for which the inhibition in assay [1] (at 50 µM (top of the series)) is 1.26% (inactive).
For `O=C(CCCCSc1nc2ccccc2c(=O)n1-c1ccc(Cl)c(Cl)c1)Nc1ccc2c(c1)CCC2`, the inhibition in assay [1] (at 100 µM (top of the series)) was 3.07% (inactive).
The same measure, in the same setting: in the case of `O=C(CSc1nc2ccccc2c(=O)n1-c1ccc(Cl)c(Cl)c1)Nc1cccc(-c2ccccc2)c1` it was -1.24% (inactive); in that of `O=C(CSc1nc2ccccc2c(=O)n1-c1ccc(F)c(Cl)c1)NC1Cc2ccccc2C1`, -1.39% (inactive).
With `O=C(CSc1nc2ccccc2c(=O)n1-c1ccc(Cl)c(Cl)c1)N1CCCCCC1`, the inhibition in assay [1] (at 100 µM (top of the series)) was 1.13% (inactive).
As to `Cn1c(NC(=O)CSc2nc3ccccc3c(=O)n2-c2ccccc2)nc2ccccc21`, in assay [1] (at 25 µM (top of the series)), the inhibition was -2.29% (inactive).
For the compound `O=C(CSc1nc2ccccc2c(=O)n1-c1ccc(Cl)c(Cl)c1)Nc1nc2cc(Cl)ccc2o1`, the inhibition in assay [1] (at 100 µM (top of the series)) is 6.36% (inactive).
Consider `O=C(CSc1nc2ccccc2c(=O)n1-c1ccc(F)c(F)c1)Nc1ccc2c(c1)CCC2`, for which the IC50 in assay [2] was 5.72 µM.
As to `O=C(CCCCSc1nc2ccccc2c(=O)n1-c1ccc(F)c(Cl)c1)Nc1ccc2c(c1)CCC2`, the inhibition in assay [1] (at 100 µM (top of the series)) was 0.07% (inactive).
The same measure, in the same setting: the same measure for `O=C(CSc1nc2ccccc2c(=O)n1-c1cc(F)c(F)c(F)c1)Nc1cccc2ccccc12`: -1.52% (inactive).
With `Cc1nc2cc(NC(=O)CSc3nc4ccccc4c(=O)n3-c3ccc(Cl)c(Cl)c3)ccc2s1`, the inhibition in assay [1] (at 50 µM (top of the series)) was 0.29% (inactive).
On the same count and under the same terms, in the case of `O=C(CSc1nc2ccccc2c(=O)n1-c1ccc(Cl)c(Cl)c1)NC1CCc2ccccc21` (configuration not stated) it was 5.24% (inactive).
Still for that read-out and setting: the same measure for `O=C(CSc1nc2ccccc2c(=O)n1-c1cc(F)c(F)c(F)c1)NC1Cc2ccccc2C1`: 0.07% (inactive).
With `O=C(CSc1nc2ccccc2c(=O)n1-c1cc(Cl)cc(Cl)c1)NC1CCCc2ccccc21` (configuration not stated), in assay [1] (at 50 µM (top of the series)), the inhibition was 1.62% (inactive).
Consider `Cc1csc(NC(=O)CSc2nc3ccccc3c(=O)n2-c2ccc(Cl)c(Cl)c2)n1`, for which the inhibition in assay [1] (at 100 µM (top of the series)) was -0.04% (inactive).
Still for that read-out and setting: the same measure for `O=C(CSc1nc2ccccc2c(=O)n1-c1ccc(F)c(Cl)c1)Nc1cccc2c1CCC2`: -0.11% (inactive).
With `O=C(CSc1nc2ccccc2c(=O)n1-c1cc(F)c(F)c(F)c1)Nc1ccc2c(c1)CCC2`, the IC50 in assay [2] is 5.27 µM.
For the compound `O=C(CCCCSc1nc2ccccc2c(=O)n1-c1cc(F)c(F)c(F)c1)Nc1ccc2c(c1)CCC2`, in assay [1] (at 100 µM (top of the series)), the inhibition was 11.5% (inactive).
Same read-out and setting: in the case of `O=C(CSc1nc2ccccc2c(=O)n1-c1ccc(F)c(Cl)c1)Nc1nccs1` it was 7.09% (inactive); in that of `O=C(CCSc1nc2ccccc2c(=O)n1-c1ccc(F)c(Cl)c1)Nc1ccc2c(c1)CCC2`, -1.01% (inactive).
On the same count and under the same terms, the same measure for `O=C(CSc1nc2ccccc2c(=O)n1-c1ccc(F)c(F)c1)Nc1ccc2c(c1)OCO2`: -1.66% (inactive).
The same measure, in the same setting: the same measure for `O=C(CCCCSc1nc2ccccc2c(=O)n1-c1cc(Cl)cc(Cl)c1)Nc1ccc2c(c1)CCC2`: 0.66% (inactive); for `O=C(CSc1nc2ccccc2c(=O)n1-c1ccc(F)c(F)c1)NC1Cc2ccccc2C1`: -0.73% (inactive).
Consider `O=C(CSc1nc2ccccc2c(=O)n1-c1ccc(F)c(F)c1)Nc1cccc2c1CCC2`, for which the inhibition in assay [1] (at 100 µM (top of the series)) is 0% (inactive).

One may read the inhibition as the drop in the measured response relative to a control, in per cent. Usually IC50 stands for the concentration that inhibits the measured activity by half.
